Source: patent publication US20150344843A1, “DETERGENT TREATED BIOLOGICAL TISSUE WITH LOW RESIDUAL DETERGENT AND METHOD OF PRODUCING THE SAME” (Bacterin International, Inc., priority 2014, published 2015)

System: L-929 mouse fibroblast cells
Experiment: MEM endpoint dilution assay for liquids (cytotoxic threshold of SDS)
Type: cell-based
Set-up: key to Cytotoxicity Score: 0: Discrete intracytoplasmic granules, no cell lysis, no reduction of cell growth; 1: Not more than 20% of the cells are round, loosely attached, and without intracytoplasmic granules, or show changes in morphology; occasional lysed cells are present; only slight growth inhibition observable; 2: Not more than 50% of the cells are round, devoid of intracytoplasmic granules, no extensive cell lysis; not more than 50% growth inhibition observable; 3: Not more than 70% of the cell layers contain rounded cells or are lysed; cell layers not completely destroyed, but more than 50% growth inhibition observable; 4: Nearly complete or complete destruction of the cell layers
Conditions: for Cytotoxicity Score: about 24 hours; for Pass/Fail: scores 0-2 Pass, 3-4 Fail per Table 1
Procedure: To determine the cytotoxic threshold of SDS, an MEM endpoint dilution assay for liquids using L-929 mouse fibroblast cells was performed. Briefly, solutions of Eagle's minimum essential medium with about 5% fetal bovine serum were created with various concentrations of SDS. One mL of the SDS containing medium was placed in a disposable tissue culture labware and a monoloyer of L-929 mouse fibroblasts was placed on top of the media. The cells were incubated for about 24 hours at about 37° C. in a humidified atmosphere of about 5% CO2 in air. The mouse fibroblasts were then […] examined using the semi-quantitative scale defined in Table 1.
Appropriate positive and negative controls were assessed to ensure the validity of the assay.

[1] = SDS concentration 4 μg/mL (approximate)
[2] = SDS concentration 8 μg/mL (approximate)
[3] = SDS concentration 16 μg/mL (approximate)
[4] = SDS concentration 17 μg/mL (approximate)
[5] = SDS concentration 20 μg/mL (approximate)
[6] = SDS concentration 23 μg/mL (approximate)
[7] = SDS concentration 26 μg/mL (approximate)
[8] = SDS concentration 29 μg/mL (approximate)
[9] = SDS concentration 32 μg/mL (approximate)

With `CCCCCCCCCCCCOS(=O)(=O)[O-].[Na+]` [SDS, sodium dodecyl sulfate] the “Cytotoxicity Score” value [1] was 0, the Pass/Fail [1] was “Pass” and the “Cytotoxicity Score” value [2] was 0. The Pass/Fail [2] was “Pass”, the “Cytotoxicity Score” value [3] was 0 and the Pass/Fail [3] was “Pass”. The “Cytotoxicity Score” value [4] was 0, the Pass/Fail [4] was “Pass” and the “Cytotoxicity Score” value [5] was 0. For the same compound, the Pass/Fail [5] was “Pass”, the “Cytotoxicity Score” value [6] was 1 and the Pass/Fail [6] was “Pass”. The “Cytotoxicity Score” value [7] was 4, the Pass/Fail [7] was “Fail” and the “Cytotoxicity Score” value [8] was 4. For the same compound, the Pass/Fail [8] was “Fail”, the “Cytotoxicity Score” value [9] was 4 and the Pass/Fail [9] was “Fail”. The “limit of toxicity for SDS, corresponding tissue content” value (converted from μg/mL limit) was 86-98 ng of SDS/mg of tissue and the “SDS content for tissue to be non-cytotoxic” value (threshold from in vitro limit) was “less than 86 ng of SDS/mg of tissue”.
